Data published in PMC6030159 (Scientific Reports, 2018).
pIC50: −log10 of the molar value. Values joined by “and” are separate entries in the source; they are usually repeats but may differ in a detail not shown here. Equal values may be shown once. “Also recorded” adds a separate entry of the source.

Assays:
[1] = tested on: MYCN-amplified neuroblastoma cells (IMR-32, Kelly, SK-N-DZ); test: Resazurin growth assay, MYCN-amplified neuroblastoma cell lines; assay type: cell-based, human; details: 48 hours; for growth of MYCN-amplified versus MYCN-non-amplified neuroblastoma cell lines: MYCMI-6 6.25 μM, MYCMI-11 and MYCMI-14 25 μM, 10058-F4 64 μM
Source text: HEK293A, MCF7, MDA-MB231, SK-N-F1, SK-N-RA, SK-N-AS, COS-7, HeLa, BJ cells, and Rat1 fibroblasts TGR-1 (wt), HO15.19 (MYC knockout) and HOmyc3 (MYC reconstituted HO15.19) were maintained in DMEM. The neuroblastoma cell lines Kelly, IMR-32 and SK-N-DZ, and the Burkitt’s lymphoma cell lines Mutu, Daudi and ST486 were kept in RPMI. SK-N-BE(2) cells were maintained in a 1:1 mixture of EMEM and F12 media, supplemented with 1% non-essential amino acid solution (NEAA) and 0.5% Glutamine. U2OS-MYC-ER cell lines were cultured in phenol-red free DMEM and treated with 100 nM 4-hydroxytamoxifen (HOT) (Sigma-Aldrich) to activate MYC-ER. IMR-90 was maintained in MEM. All media were supplemented with 10% FBS and 1% penicillin and streptomycin and kept at 37 °C and 5% CO2. All cell lines were mycoplasma free. Cell proliferation assays were performed as described in Supplementary Information. […]
Cell proliferation assays. Cell growth and viability was estimated in triplicates with WST-1
(Roche) or Resazurin sodium salt (Sigma-Aldrich) assays in medium at 37°C and 5% CO 2 for
2 hours after which absorbance or fluorescence, respectively, was measured with an Omega
Fluostar (BMG Labtech) in a 96 well plate format. […]

endogenous MYC protein = test: Western blot of endogenous MYC in HeLa cells; assay type: cell-based; details: 10 μM, 24 hours
Procedure: These assays were performed essentially as described in[67],[68]. For further information on immunohistochemistry, and on primers and antibodies, see Supplementary Information.

[2] = molecular target: T1, endogenous MYC:MAX interaction (Homo sapiens, UniProt P01106); test: isPLA endogenous MYC:MAX in breast cancer cells (MCF7); assay type: cell-based; details: 24 hours; for MYC:MAX isPLA signals, % of DMSO-treated controls: 10 μM, breast cancer cells; for pIC50: titration in MCF7 cells, read-out: IC50 for inhibition of MYC:MAX by isPLA
T1 construct: endogenous in cells; host or cells: breast cancer cells; MCF7 named for the titration
T1 sequence (P01106 whole entry): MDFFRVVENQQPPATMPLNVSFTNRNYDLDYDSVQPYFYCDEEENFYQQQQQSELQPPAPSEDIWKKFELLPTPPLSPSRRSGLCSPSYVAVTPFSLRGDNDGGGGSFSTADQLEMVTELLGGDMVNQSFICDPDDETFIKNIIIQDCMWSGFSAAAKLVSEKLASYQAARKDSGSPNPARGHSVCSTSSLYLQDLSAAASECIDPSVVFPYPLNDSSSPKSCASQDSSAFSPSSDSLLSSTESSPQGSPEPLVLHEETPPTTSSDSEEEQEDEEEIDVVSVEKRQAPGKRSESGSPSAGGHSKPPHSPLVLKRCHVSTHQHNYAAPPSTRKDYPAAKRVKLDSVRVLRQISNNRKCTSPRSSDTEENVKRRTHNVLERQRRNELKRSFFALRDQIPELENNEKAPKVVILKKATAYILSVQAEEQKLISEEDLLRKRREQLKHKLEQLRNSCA
Procedure: The isPLA assay has been described. Antibodies used are listed in Supplementary Information. […] Slides were washed in PBS with 0.05% Tween 20 and incubated in blocking buffer after which isPLA was performed using the Duolink® in situ PLA kit (Sigma-Aldrich) according to the manufacturer’s protocol. DNA was stained with DAPI. Incubation with primary antibodies were performed at +4 °C overnight. Images were taken using an Axiovert 200M inverted microscope (Zeiss) and fluorescent dots were quantified using semi-automated analysis in ImageJ (http://imagej.net) and averaged to number of dots per cell.

SK-N-DZ cells = test: Anchorage-independent growth in agarose; assay type: cell-based; details: Homo sapiens, 384 h, 0.35% agarose, 16 days
Procedure: Triton-X-114 (Sigma). Truncated p53 core protein was a kind gift from Klas Wiman, CCK, […]
Cell proliferation assays. Cell growth and viability was estimated in triplicates with WST-1 (Roche) or Resazurin sodium salt (Sigma-Aldrich) assays in medium at 37°C and 5% CO 2 for 2 hours after which absorbance or fluorescence, respectively, was measured with an Omega Fluostar (BMG Labtech) in a 96 well plate format. Cell counting was done in 96 well plates with CellTracker Green (ThermoFisher) for 30 min in the incubator, after which DAPI was added for 5 min. Images were taken in the green (FITC) and blue (DAPI) channels using a fluorescence microscope (ImageXpress Micro, Molecular Devices). For anchorage-independent growth assay, cells were suspended in 250 µl 0.35% SeaPlaque agarose (InVitro) and seeded into 24 well plates which had previously been coated with a bottom layer of 250 µl 0.7% agarose. After 16 days, the colonies were stained with 100 µg/ml MTT (Sigma) overnight and colonies were counted.
Immunohistochemistry. Apoptosis was visualized at the single-cell level on tumor cryosections using the TUNEL method using the In Situ Cell Death Detection Fluorescein-Roche kit and analyzed by fluorescence microscopy. Briefly, tumor cryosections were fixed in 4% paraformaldyde (PFA) and the assay was performed following the instructions from the manufacturer. Negative controls were run using the reagent without the TdT enzyme. Samples were mounted using Vectashield mounting medium (Vector) and DAPI was used as nuclear counterstaining. Cell proliferation and microvascular density (MVD) were evaluated through Ki67 and CD31staining, respectively, on tumor cryosections and detected by immunofluoresence. Visualization and image acquisition was done in a Zeiss microscope, and for panoramic views by a Vectra imaging system. For quantification, areas with positive TUNEL and Ki67 staining were measured using Image J software. For the analysis of MVD, the number of vessel structures per microscopic field was calculated.

SMILES	GI50 ([1]; Homo sapiens, Neuroblastoma cell, resazurin)	growth of MYCN-amplified versus MYCN-non-amplified neuroblastoma cell lines [1]	effect on endogenous MYC protein levels (western blot) (endogenous MYC protein)	MYC:MAX isPLA signals, % of DMSO-treated controls [2]	pIC50 [2]	GI50 (SK-N-DZ cells)	effect on endogenous MYC protein levels (western blot) (endogenous MYC protein; listed as MYCM-14)
CCOc1ccc2nc3cc(/N=N/c4ccc(N)nc4N)ccc3c(N)c2c1 [MYCMI-6]	2.5 to 6 µM	reduced growth of the MYCN-amplified cell lines significantly stronger than the MYCN-non-amplified cell lines	did not affect MYC protein levels to any greater extent; also recorded: do not	7%	> 5.82 and 5.82	< 0.4 µM	
CCCCN(c1ccccc1)c1ncnc2c1cnn2C [MYCMI-11]		reduced growth of the MYCN-amplified cell lines significantly stronger than the MYCN-non-amplified cell lines	did not affect MYC protein levels to any greater extent; also recorded: do not	23%	~5.22 and 5.22	5 µM	
O=C(O)/C=C/C(=O)Nc1cccc2c1-c1ccccc1C2=O [MYCMI-14]		reduced growth of the MYCN-amplified cell lines significantly stronger than the MYCN-non-amplified cell lines	did not affect MYC protein levels to any greater extent	23%	~5.22 and 5.22	0.75 µM	do not
